Test results as given in patent US12403137B2, “Compounds and methods of use” (Tango Therapeutics, Inc., priority 2019, dated 2025).
pIC50: −log10 of the molar value.

Experiments:
PRMT5 [1] = target: T1, PRMT5 (Homo sapiens, UniProt O14744); experiment: PRMT5 inhibition assay with SAM as cofactor; type: biochemical; settings: against PRMT5 in the presence of SAM as cofactor
T1 construct: purchased Viva (custom protein)
Description: (§1) The Ki values can be calculated from the IC50 values as described in the Examples section. As detailed in the Examples section, for the assay performed in the presence of SAM, IC50=Ki×1.5 (Ki=IC50/1.5). For the assay performed in the presence of MTA, IC50=Ki×13.5 (Ki=IC50/13.5). Column 6 indicates the ratio between the Ki of compounds in the presence of SAM and the Ki of compounds in the presence of MTA

PRMT5 [2] = target: T1, PRMT5; experiment: PRMT5 inhibition assay with no cofactor; type: biochemical; settings: against PRMT5 with no cofactor; read-out: No Co-factor IC50
PRMT5 [3] = target: T1, PRMT5; experiment: PRMT5 inhibition assay with MTA as cofactor; type: biochemical; settings: for pIC50: against PRMT5 with MTA as cofactor; for SAM/MTA Ratio: ratio of Ki in the presence of SAM to Ki in the presence of MTA, Ki=IC50/1.5 (SAM), Ki=IC50/13.5 (MTA)
Description: as §1

[4] = test system: HAP1 MTAP-intact cell line; experiment: SDMA in-cell western assay, HAP1 MTAP-intact; type: cell-based; settings: for pIC50: Homo sapiens
Experimental: (§2) Table 1 also indicates IC50 values in an MTAP-isogenic cell line pair for exemplary compounds in an SDMA in-cell western assay (columns 7-8). HAP1 MTAP-intact is a cell line in which endogenous levels of MTAP are expressed, and HAP1 MTAP-deleted is an MTAP-null cell line. For Table 1, “a*” and “aa*” indicates an IC50 of <1 μM, “b*” and “bb*” indicates an IC50 equal to or greater than 1 μM but less than 10 μM, and “c*” and “cc*” indicates an IC50 of greater than or equal to 10 μM in the HAP1 MTAP-intact and the HAP1 MTAP-deleted assays, respectively. In column 9, “A*” indicates an IC50 ratio greater than or equal to 10 fold between the IC50 in the HAP1 MTAP-intact cell line and the HAP1 MTAP-deleted cell line; “B*” indicates an IC50 ratio greater than or equal to 3 fold but lower than 10 fold between the IC50 in the HAP1 MTAP-intact cell line and the HAP1 MTAP-deleted cell line; “C*” indicates an IC50 ratio of less than 3 fold between the IC50 in the HAP1 MTAP-intact cell line and the HAP1 MTAP-deleted cell line. Compounds with a ratio in the SDMA in-cell western assay of equal to or greater than 3 fold are considered MTAP-selective.

[5] = test system: HAP1 MTAP-deleted cell line; experiment: SDMA in-cell western assay, HAP1 MTAP-deleted; type: cell-based; settings: for pIC50: Homo sapiens, HAP1 MTAP-deleted (MTAP-null) cell line; for MTAP Intact/Deleted Ratio: IC50 ratio HAP1 MTAP-intact / HAP1 MTAP-deleted, >=3 fold considered MTAP-selective
Experimental: as §2

T1 sequence (O14744 whole entry): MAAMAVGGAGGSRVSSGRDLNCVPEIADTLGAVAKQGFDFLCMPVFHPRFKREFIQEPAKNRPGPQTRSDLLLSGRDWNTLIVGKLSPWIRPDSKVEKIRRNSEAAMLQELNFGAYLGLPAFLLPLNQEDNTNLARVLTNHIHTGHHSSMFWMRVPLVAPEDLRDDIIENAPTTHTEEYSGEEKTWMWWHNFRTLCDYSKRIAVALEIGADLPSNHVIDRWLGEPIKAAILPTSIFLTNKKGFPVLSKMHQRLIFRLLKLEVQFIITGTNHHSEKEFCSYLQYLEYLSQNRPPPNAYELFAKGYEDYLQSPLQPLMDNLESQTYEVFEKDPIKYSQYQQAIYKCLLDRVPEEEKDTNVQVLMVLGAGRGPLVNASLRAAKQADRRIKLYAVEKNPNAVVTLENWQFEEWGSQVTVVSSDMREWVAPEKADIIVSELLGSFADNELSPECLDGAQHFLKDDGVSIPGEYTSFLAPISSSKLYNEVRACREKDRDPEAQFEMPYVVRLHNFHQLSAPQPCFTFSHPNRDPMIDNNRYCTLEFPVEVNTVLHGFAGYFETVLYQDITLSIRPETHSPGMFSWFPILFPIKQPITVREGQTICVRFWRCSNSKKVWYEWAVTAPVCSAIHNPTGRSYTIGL
T1 sequence (Q9BQA1 whole entry partner): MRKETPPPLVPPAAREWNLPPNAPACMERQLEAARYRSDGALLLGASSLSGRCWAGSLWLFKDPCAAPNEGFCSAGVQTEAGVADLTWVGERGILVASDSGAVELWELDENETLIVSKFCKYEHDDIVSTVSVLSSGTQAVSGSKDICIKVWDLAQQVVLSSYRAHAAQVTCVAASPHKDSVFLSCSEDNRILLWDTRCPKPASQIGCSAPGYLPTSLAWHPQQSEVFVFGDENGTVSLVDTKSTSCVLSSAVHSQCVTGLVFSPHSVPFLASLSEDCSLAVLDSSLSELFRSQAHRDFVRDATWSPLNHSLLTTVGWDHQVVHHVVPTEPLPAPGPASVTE

pIC50 (PRMT5 [1])	pIC50 (PRMT5 [2])	pIC50 (PRMT5 [3])	pIC50 [4]	pIC50 [5]	HAP1 MTAP Intact IC50 [4]	SMILES	SAM/MTA Ratio (PRMT5 [3])	MTAP Intact/Deleted Ratio [5]
6.30 to 7.30	≤ 5.30	6.30 to 7.30	≤ 5.00	≤ 5.00	–	O=C(NC[C@@H](O)[C@@H]1Cc2ccc(OCc3cnco3)cc2CN1)c1ccc(C(=O)N2CCOCC2)cc1 [Compound 1, N—((R)-2-hydroxy-2-((S)-7-(oxazol-5-ylmethoxy)-1,2,3,4-tetrahydroisoquinolin-3-yl)ethyl)-4-(morpholine-4-carbonyl)benzamide]	A (a Ki ratio greater than or equal to 10 fold between the Ki in the presence of SAM and the Ki in the presence of MTA)	C* (an IC50 ratio of less than 3 fold between the IC50 in the HAP1 MTAP-intact cell line and the HAP1 MTAP-deleted cell line)
6.30 to 7.30	5.30 to 6.30	6.30 to 7.30	≤ 5.00	≤ 5.00	–	Cn1nccc1COc1ccc2c(c1)CN[C@H]([C@H](O)CNC(=O)c1ccc(C(=O)N3CCOCC3)cc1)C2 [Compound 2, N—((R)-2-hydroxy-2-((S)-7-((1-methyl-1H-pyrazol-5-yl)methoxy)-1,2,3,4-tetrahydroisoquinolin-3-yl)ethyl)-4-(morpholine-4-carbonyl)benzamide]	A (a Ki ratio greater than or equal to 10 fold between the Ki in the presence of SAM and the Ki in the presence of MTA)	C* (an IC50 ratio of less than 3 fold between the IC50 in the HAP1 MTAP-intact cell line and the HAP1 MTAP-deleted cell line)
6.30 to 7.30	5.30 to 6.30	6.30 to 7.30	≤ 5.00	5.00 to 6.00	–	Cc1ncoc1COc1ccc2c(c1)CN[C@H]([C@H](O)CNC(=O)c1ccc(C(=O)N3CCOCC3)cc1)C2 [Compound 3, N—((R)-2-hydroxy-2-((S)-7-((4-methyloxazol-5-yl)methoxy)-1,2,3,4-tetrahydroisoquinolin-3-yl)ethyl)-4-(morpholine-4-carbonyl)benzamide]	A (a Ki ratio greater than or equal to 10 fold between the Ki in the presence of SAM and the Ki in the presence of MTA)	C* (an IC50 ratio of less than 3 fold between the IC50 in the HAP1 MTAP-intact cell line and the HAP1 MTAP-deleted cell line)
6.30 to 7.30	6.30 to 7.30	6.30 to 7.30	≤ 5.00	5.00 to 6.00	–	O=C(NC[C@@H](O)[C@@H]1Cc2ccc(OCc3cn[nH]c3)cc2CN1)c1ccc(C(=O)N2CCOCC2)cc1 [Compound 4, N—((R)-2-((S)-7-((1H-pyrazol-4-yl)methoxy)-1,2,3,4-tetrahydroisoquinolin-3-yl)-2-hydroxyethyl)-4-(morpholine-4-carbonyl)benzamide]	A (a Ki ratio greater than or equal to 10 fold between the Ki in the presence of SAM and the Ki in the presence of MTA)	C* (an IC50 ratio of less than 3 fold between the IC50 in the HAP1 MTAP-intact cell line and the HAP1 MTAP-deleted cell line)
5.30 to 6.30	≤ 5.30	5.30 to 6.30	–	–	–	COCCN(C)c1nc(NC2COC2)cc(C(=O)NC[C@@H](O)[C@@H]2Cc3ccc(OCc4ocnc4C)cc3CN2)n1 [Compound 37, N—((R)-2-hydroxy-2-((S)-7-((4-methyloxazol-5-yl)methoxy)-1,2,3,4-tetrahydroisoquinolin-3-yl)ethyl)-2-((2-methoxyethyl)(methyl)amino)-6-(oxetan-3-ylamino)pyrimidine-4-carboxamide]	A (a Ki ratio greater than or equal to 10 fold between the Ki in the presence of SAM and the Ki in the presence of MTA)	–
5.30 to 6.30	≤ 5.30	5.30 to 6.30	–	–	–	CCCN(C)c1nc(NC2COC2)cc(C(=O)NC[C@@H](O)[C@@H]2Cc3ccc(OCc4ocnc4C)cc3CN2)n1 [Compound 38, N—((R)-2-hydroxy-2-((S)-7-((4-methyloxazol-5-yl)methoxy)-1,2,3,4-tetrahydroisoquinolin-3-yl)ethyl)-2-(methyl(propyl)amino)-6-(oxetan-3-ylamino)pyrimidine-4-carboxamide]	A (a Ki ratio greater than or equal to 10 fold between the Ki in the presence of SAM and the Ki in the presence of MTA)	–
–	6.30 to 7.30	> 7.30	–	> 6.00	B*	CC(=O)N1CCC(Nc2cc(C(=O)NC[C@@H](O)[C@@H]3Cc4ccc(OCc5ocnc5C)cc4CN3)nc(N3CCN(C(C)C)CC3)n2)CC1 [Compound 72]	–	A* (an IC50 ratio greater than or equal to 10 fold between the IC50 in the HAP1 MTAP-intact cell line and the HAP1 MTAP-deleted cell line)
–	6.30 to 7.30	> 7.30	5.00 to 6.00	> 6.00	–	Cc1ncoc1COc1ccc2c(c1)CN[C@H]([C@H](O)CNC(=O)c1cc(NC3CCC3)nc(C3CCN(C(C)C)CC3)c1)C2 [Compound 78]	–	A* (an IC50 ratio greater than or equal to 10 fold between the IC50 in the HAP1 MTAP-intact cell line and the HAP1 MTAP-deleted cell line)
–	6.30 to 7.30	> 7.30	5.00 to 6.00	> 6.00	–	COCCN(C)c1nc(NC2CCN(C(C)=O)CC2)cc(C(=O)NC[C@@H](O)[C@@H]2Cc3ccc(OCc4ocnc4C)cc3CN2)n1 [Compound 79]	–	A* (an IC50 ratio greater than or equal to 10 fold between the IC50 in the HAP1 MTAP-intact cell line and the HAP1 MTAP-deleted cell line)
–	6.30 to 7.30	> 7.30	5.00 to 6.00	> 6.00	–	CC(=O)N1CCC(Nc2cc(C(=O)NC[C@@H](O)[C@@H]3Cc4ccc(OCc5ocnc5C)cc4CN3)nc(N3CCCC3)n2)CC1 [Compound 81]	–	A* (an IC50 ratio greater than or equal to 10 fold between the IC50 in the HAP1 MTAP-intact cell line and the HAP1 MTAP-deleted cell line)
–	6.30 to 7.30	> 7.30	≤ 5.00	> 6.00	–	COCCN(C)c1nc(NC2CN(C(C)=O)C2)cc(C(=O)NC[C@@H](O)[C@@H]2Cc3ccc(OCc4ocnc4C)cc3CN2)n1 [Compound 82]	–	A* (an IC50 ratio greater than or equal to 10 fold between the IC50 in the HAP1 MTAP-intact cell line and the HAP1 MTAP-deleted cell line)

SMILES	pIC50 (PRMT5 [1])	pIC50 (PRMT5 [2])	pIC50 (PRMT5 [3])	pIC50 [4]	pIC50 [5]	HAP1 MTAP Intact IC50 [4]	SAM/MTA Ratio (PRMT5 [3])	MTAP Intact/Deleted Ratio [5]
CCOc1cc(C(=O)N2C3CCC2COC3)ccc1C(=O)NC[C@@H](O)[C@@H]1Cc2ccc(OCc3ccnn3C)cc2CN1 [Compound 5, 4-(3-oxa-8-azabicyclo[3.2.1]octane-8-carbonyl)-2-ethoxy-N—((R)-2-hydroxy-2-((S)-7-((1-methyl-1H-pyrazol-5-yl)methoxy)-1,2,3,4-tetrahydroisoquinolin-3-yl)ethyl)benzamide]	6.30 to 7.30	5.30 to 6.30	6.30 to 7.30	> 6.00	> 6.00	–	A (a Ki ratio greater than or equal to 10 fold between the Ki in the presence of SAM and the Ki in the presence of MTA)	C* (an IC50 ratio of less than 3 fold between the IC50 in the HAP1 MTAP-intact cell line and the HAP1 MTAP-deleted cell line)
